Test results published in ChEMBL document CHEMBL1201862, “PubChem BioAssay data set” (2004).
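How tested: cells in 96-well plates exposed to compound for 48 hours at five concentrations. GI50 = concentration required for 50% inhibition of growth.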 Calls of active or inactive are those of the source. Cut-off read from the data, not from the text of the source: active = GI50 up to about 1.1 µM and inactive = higher.

Tests used:
Test in all cases: growth of human tumour cells (NCI), 48 h
U-251 = tested on: U-251
A498 = tested on: A498
OVCAR-4 = tested on: OVCAR-4
KM12 = tested on: KM12
786-0 = tested on: 786-0
EKVX = tested on: EKVX
HT-29 = tested on: HT-29
OVCAR-8 = tested on: OVCAR-8
SK-MEL-2 = tested on: SK-MEL-2
TK-10 = tested on: TK-10
MOLT-4 = tested on: MOLT-4
NCI-H23 = tested on: NCI-H23
M14 = tested on: M14
NCI-H226 = tested on: NCI-H226
CAKI-1 = tested on: CAKI-1
SF-268 = tested on: SF-268
HOP-92 = tested on: HOP-92

Measured: GI50

CC[P+](C)(Cc1ccccc1)c1ccccc1 (stereo not drawn)
inactive: U-251 59 µM | A498 > 100 µM | OVCAR-4 > 100 µM | KM12 > 100 µM | 786-0 > 100 µM | EKVX > 100 µM | HT-29 > 100 µM | OVCAR-8 > 100 µM | SK-MEL-2 > 100 µM | TK-10 > 100 µM | MOLT-4 > 100 µM | NCI-H23 > 100 µM | M14 > 100 µM | NCI-H226 > 100 µM

CC(=O)c1cccc(C)c1C(=O)O
inactive: U-251 > 100 µM | A498 > 100 µM | OVCAR-4 > 100 µM | KM12 > 100 µM | 786-0 > 100 µM | EKVX > 100 µM | HT-29 > 100 µM | CAKI-1 > 100 µM | OVCAR-8 > 100 µM | SK-MEL-2 > 100 µM | TK-10 > 100 µM | MOLT-4 > 100 µM | NCI-H23 > 100 µM | SF-268 > 100 µM | M14 > 100 µM | NCI-H226 > 100 µM

COc1cc2ccc(C(=O)O)cc2cc1OC
inactive: U-251 > 100 µM | A498 49.7 µM | OVCAR-4 > 100 µM | KM12 > 100 µM | HOP-92 > 100 µM | 786-0 > 100 µM | EKVX > 100 µM | HT-29 > 100 µM | OVCAR-8 > 100 µM | SK-MEL-2 > 100 µM | TK-10 > 100 µM | MOLT-4 > 100 µM | NCI-H23 > 100 µM | SF-268 > 100 µM | M14 > 100 µM | NCI-H226 > 100 µM

O=C1C=C(c2ccccc2)NC1(c1ccccc1)c1cc(-c2ccccc2)[nH]c1-c1ccccc1 (stereo not drawn)
inactive: U-251 > 100 µM | A498 > 100 µM | OVCAR-4 > 100 µM | KM12 > 100 µM | 786-0 > 100 µM | EKVX > 100 µM | HT-29 > 100 µM | CAKI-1 > 100 µM | OVCAR-8 > 100 µM | SK-MEL-2 > 100 µM | MOLT-4 > 100 µM | NCI-H23 > 100 µM | M14 > 100 µM

CCC1=C(CC)C1(C#N)[N+](=O)[O-]
inactive: U-251 > 100 µM | A498 > 100 µM | OVCAR-4 > 100 µM | KM12 > 100 µM | 786-0 > 100 µM | EKVX > 100 µM | HT-29 > 100 µM | CAKI-1 > 100 µM | OVCAR-8 > 100 µM | SK-MEL-2 > 100 µM | TK-10 > 100 µM | MOLT-4 > 100 µM | NCI-H23 > 100 µM | SF-268 > 100 µM | M14 > 100 µM | NCI-H226 > 100 µM

CC(C)c1cccc(C(C)C)c1NC(=O)CCC(=O)NN
inactive: U-251 > 100 µM | A498 > 100 µM | OVCAR-4 > 100 µM | KM12 > 100 µM | HOP-92 > 100 µM | 786-0 > 100 µM | EKVX > 100 µM | HT-29 > 100 µM | CAKI-1 > 100 µM | OVCAR-8 > 100 µM | TK-10 > 100 µM | MOLT-4 > 100 µM | NCI-H23 > 100 µM | SF-268 > 100 µM | M14 > 100 µM | NCI-H226 > 100 µM

O=C(CC/C(CC(=O)c1ccc(Cl)cc1)=N\O)Nc1cccc(Cl)c1
inactive: U-251 > 100 µM | A498 > 100 µM | OVCAR-4 > 100 µM | KM12 > 100 µM | 786-0 > 100 µM | EKVX > 100 µM | HT-29 > 100 µM | CAKI-1 > 100 µM | OVCAR-8 > 100 µM | SK-MEL-2 > 100 µM | TK-10 > 100 µM | MOLT-4 > 100 µM | NCI-H23 > 100 µM | SF-268 > 100 µM | M14 > 100 µM

Cc1cc(C)c2c(c1)CN1CN2Cc2cc(C)cc(C)c21
inactive: U-251 17.5 µM | OVCAR-4 18.3 µM | KM12 18.2 µM | HOP-92 > 10 µM | 786-0 17.2 µM | EKVX 16.9 µM | HT-29 16.3 µM | CAKI-1 34.1 µM | OVCAR-8 17.8 µM | SK-MEL-2 > 10 µM | TK-10 19 µM | MOLT-4 22.4 µM | NCI-H23 20.8 µM | SF-268 31.6 µM | M14 18.2 µM | NCI-H226 26 µM

CC(C)c1ccc(Cc2ccc(C(C)C)c(NC(=O)C(=O)Cc3cnc4ccccc4n3)c2C(C)C)c(C(C)C)c1NC(=O)C(=O)Cc1cnc2ccccc2n1
inactive: U-251 > 100 µM | A498 > 100 µM | OVCAR-4 > 100 µM | KM12 > 100 µM | HOP-92 12.4 µM | 786-0 > 100 µM | EKVX > 100 µM | CAKI-1 98.9 µM | OVCAR-8 > 100 µM | SK-MEL-2 > 100 µM | TK-10 > 100 µM | MOLT-4 > 100 µM | M14 > 100 µM

Cn1c(=O)c2c(nc(C[N+]3([O-])CCOCC3)n2C)n(C)c1=O
inactive: U-251 > 100 µM | KM12 > 100 µM | HOP-92 > 100 µM | 786-0 > 100 µM | EKVX > 100 µM | HT-29 > 100 µM | CAKI-1 36.9 µM | OVCAR-8 > 100 µM | SK-MEL-2 > 100 µM | TK-10 > 100 µM | MOLT-4 > 100 µM | NCI-H23 > 100 µM | SF-268 > 100 µM | M14 > 100 µM | NCI-H226 > 100 µM

CC1(C)Cc2c(oc3ncnc(N)c23)CS1
inactive: U-251 > 100 µM | OVCAR-4 > 100 µM | KM12 > 100 µM | 786-0 > 100 µM | EKVX > 100 µM | HT-29 > 100 µM | CAKI-1 > 100 µM | OVCAR-8 > 100 µM | SK-MEL-2 > 100 µM | MOLT-4 > 100 µM | NCI-H23 > 100 µM | SF-268 > 100 µM | M14 > 100 µM | NCI-H226 89.7 µM

Oc1nnc2c(-c3ccccc3)n[nH]c2n1
inactive: U-251 > 100 µM | A498 > 100 µM | OVCAR-4 > 100 µM | KM12 > 100 µM | 786-0 15.5 µM | EKVX 16.4 µM | HT-29 > 100 µM | CAKI-1 45.5 µM | OVCAR-8 > 100 µM | SK-MEL-2 > 100 µM | TK-10 > 100 µM | MOLT-4 > 100 µM | NCI-H23 > 100 µM | SF-268 > 100 µM | M14 > 100 µM | NCI-H226 > 100 µM

CCCNC(=O)C1C(=O)C(=O)N(CCC)C1=O (stereo not drawn)
inactive: U-251 > 100 µM | A498 > 100 µM | OVCAR-4 > 100 µM | KM12 > 100 µM | HOP-92 > 100 µM | 786-0 > 100 µM | EKVX > 100 µM | HT-29 > 100 µM | CAKI-1 > 100 µM | OVCAR-8 > 100 µM | SK-MEL-2 > 100 µM | TK-10 > 100 µM | MOLT-4 > 100 µM | NCI-H23 > 100 µM | SF-268 > 100 µM | M14 > 100 µM

O=C(O)c1ccc(Nc2nc3nn(Cc4ccccc4)cc3c(=O)s2)cc1
inactive: U-251 > 100 µM | KM12 > 100 µM | HOP-92 > 100 µM | 786-0 > 100 µM | EKVX > 100 µM | OVCAR-8 > 100 µM | SK-MEL-2 > 100 µM | TK-10 > 100 µM | MOLT-4 > 100 µM | NCI-H23 > 100 µM | SF-268 > 100 µM | M14 > 100 µM

Cc1ccc(C2OC(COCc3ccc(Cl)cc3)C(OCc3ccc(Cl)cc3)C2O)cc1 (stereo not drawn)
inactive: U-251 10.5 µM | OVCAR-4 17.8 µM | KM12 9.38 µM | HOP-92 3.18 µM | 786-0 > 10 µM | EKVX 13 µM | HT-29 7.69 µM | CAKI-1 11.4 µM | OVCAR-8 13.7 µM | SK-MEL-2 11.1 µM | TK-10 12.7 µM | MOLT-4 2.06 µM | NCI-H23 6.44 µM | NCI-H226 1.36 µM

OC(c1ccccc1Br)(c1ccccc1Br)C(F)(F)F
inactive: U-251 18.6 µM | A498 30.1 µM | OVCAR-4 29.2 µM | KM12 15.6 µM | 786-0 19.1 µM | EKVX 33.9 µM | HT-29 14.7 µM | CAKI-1 48.1 µM | OVCAR-8 39.4 µM | SK-MEL-2 18.5 µM | TK-10 52.1 µM | MOLT-4 14.9 µM | NCI-H23 27.9 µM | SF-268 20.9 µM | M14 34.7 µM | NCI-H226 10.9 µM

OCC(O)C(OC1OC(CO)C(O)C(O)C1O)c1nn(-c2ccc(Cl)cc2)c2nc3cc(Cl)ccc3nc12 (stereo not drawn)
inactive: U-251 > 100 µM | A498 > 100 µM | OVCAR-4 > 100 µM | KM12 > 100 µM | 786-0 > 100 µM | EKVX > 100 µM | HT-29 > 100 µM | OVCAR-8 > 100 µM | TK-10 > 100 µM | MOLT-4 > 100 µM | NCI-H23 > 100 µM | SF-268 > 100 µM | M14 > 100 µM

COC(=O)NC12CC3CC(CC(F)(C3)C1)C2
inactive: U-251 > 100 µM | A498 > 100 µM | KM12 > 100 µM | HOP-92 > 100 µM | 786-0 > 100 µM | EKVX > 100 µM | HT-29 > 100 µM | OVCAR-8 > 100 µM | SK-MEL-2 > 100 µM | TK-10 > 100 µM | MOLT-4 > 100 µM | NCI-H23 > 100 µM | M14 > 100 µM

O=C(CCC(=O)Nc1cccc(Cl)c1)CC(=O)c1ccc(F)cc1
inactive: OVCAR-4 > 100 µM | KM12 > 100 µM | HOP-92 > 100 µM | 786-0 > 100 µM | HT-29 > 100 µM | CAKI-1 > 100 µM | OVCAR-8 > 100 µM | SK-MEL-2 > 100 µM | TK-10 > 100 µM | MOLT-4 > 100 µM | NCI-H23 > 100 µM | SF-268 > 100 µM | M14 > 100 µM | NCI-H226 > 100 µM
